# Experimental data as given in US10239873B2, “7-azaindole or 4,7-diazaindole derivatives as IKKϵ epsilon and TBK1 inhibitor and pharmaceutical composition comprising same” (GREEN CROSS CORPORATION, priority 2015, dated 2019).
# Assays:
# TBK1 = target: T1, TBK1 (Homo sapiens, UniProt Q9UHD2); test: ADP-Glo Kinase Assay, inhibition activity on TBK1; assay type: biochemical
# T1 construct: purchased Promega (Invitrogen is also named in the same bracket) V4158; PR8031B; V3991 (not assigned to the two kinases)
# T1 sequence (Q9UHD2 1-729): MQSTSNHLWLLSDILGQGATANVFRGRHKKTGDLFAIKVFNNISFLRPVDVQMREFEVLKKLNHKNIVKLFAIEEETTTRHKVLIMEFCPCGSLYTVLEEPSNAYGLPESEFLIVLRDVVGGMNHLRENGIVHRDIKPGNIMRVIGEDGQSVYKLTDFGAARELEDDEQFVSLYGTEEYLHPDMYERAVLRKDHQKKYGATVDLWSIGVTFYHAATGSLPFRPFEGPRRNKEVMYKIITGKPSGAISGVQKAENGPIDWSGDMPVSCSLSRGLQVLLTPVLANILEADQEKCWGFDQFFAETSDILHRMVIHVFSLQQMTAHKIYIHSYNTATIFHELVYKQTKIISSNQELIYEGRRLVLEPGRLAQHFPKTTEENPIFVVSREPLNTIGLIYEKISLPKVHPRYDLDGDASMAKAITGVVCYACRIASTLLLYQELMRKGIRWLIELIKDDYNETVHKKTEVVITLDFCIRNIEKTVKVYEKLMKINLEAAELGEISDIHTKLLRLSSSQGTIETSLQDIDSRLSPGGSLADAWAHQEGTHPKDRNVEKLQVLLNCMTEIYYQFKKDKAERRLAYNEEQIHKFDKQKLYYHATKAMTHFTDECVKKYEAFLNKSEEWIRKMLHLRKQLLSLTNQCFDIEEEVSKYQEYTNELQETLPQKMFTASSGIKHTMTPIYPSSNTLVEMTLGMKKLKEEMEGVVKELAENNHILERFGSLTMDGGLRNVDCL
# Method in brief: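 In 40 mM Tris pH 7.5 with 20 mM MgCl2 and 0.1 mg/mL BSA, each enzyme (IKKε or TBK1 kinase system) was run according to the manufacturer's protocol. ADP formed was detected by ADP-Glo luminescence.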
# IKKε = target: T2, IKKε (Homo sapiens, UniProt Q14164); test: ADP-Glo Kinase Assay, inhibition activity on IKKε; assay type: biochemical
# T2 construct: purchased Promega and/or Invitrogen V4158; PR8031B; V3991 (not assigned to the two kinases)
# T2 sequence (Q14164 1-716): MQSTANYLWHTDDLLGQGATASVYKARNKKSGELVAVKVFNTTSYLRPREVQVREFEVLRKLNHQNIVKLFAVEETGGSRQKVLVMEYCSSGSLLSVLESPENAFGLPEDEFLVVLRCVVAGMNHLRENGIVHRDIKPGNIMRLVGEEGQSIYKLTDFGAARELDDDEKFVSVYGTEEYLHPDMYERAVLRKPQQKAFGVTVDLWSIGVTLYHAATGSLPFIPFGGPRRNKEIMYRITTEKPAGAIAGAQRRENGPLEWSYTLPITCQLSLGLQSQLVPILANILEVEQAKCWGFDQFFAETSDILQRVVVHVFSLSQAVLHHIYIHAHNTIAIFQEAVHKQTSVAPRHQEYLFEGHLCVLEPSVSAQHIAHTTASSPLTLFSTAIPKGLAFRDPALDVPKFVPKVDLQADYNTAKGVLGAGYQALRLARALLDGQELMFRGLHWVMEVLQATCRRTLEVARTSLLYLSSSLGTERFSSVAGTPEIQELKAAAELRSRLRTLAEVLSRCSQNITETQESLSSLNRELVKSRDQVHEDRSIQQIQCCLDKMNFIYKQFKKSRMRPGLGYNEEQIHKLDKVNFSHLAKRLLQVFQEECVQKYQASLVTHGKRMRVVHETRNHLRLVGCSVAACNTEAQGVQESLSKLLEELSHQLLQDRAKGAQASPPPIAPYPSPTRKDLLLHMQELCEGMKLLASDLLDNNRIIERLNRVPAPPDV
# Experimental: Inhibition activities on IKKϵ and TBK1 were evaluated using the compounds of Examples 1 to 250.
# The inhibition activities on IKKϵ and TBK1 were measured by a luminometer, IKKϵ/TBK1 Kinase Enzyme System (Promega, Ca# V4158; Invitrogen, PR8031B, Promega, Ca# V3991) and ADP-Glo Kinase Assay using ADP-Glo™ Kinase Analysis Kit (Promega, Ca# V9101) and a kinase reaction buffer [40 mM Tris(pH 7.5), 20 mM MgCl2, 0.1 mg/mL BSA] in accordance with the manufacturer's protocol.
Compound,IC50 (TBK1) [nM],IC50 (IKKε) [nM]
"CN1CCN(Cc2ccc(-c3cnc4[nH]cc(C5=CCN(C(=O)NC6CC6)CC5)c4c3)cc2)CC1 [Example 46, N-cyclopropyl-4-(5-(4-((4-methylpiperazin-1-yl)methyl)phenyl)-1H-pyrrolo[2,3-b]pyridin-3-yl)-5,6-dihydropyridine-1(2H)-carboxamide]",14,25
"O=C(NC1CC1)N1CC=C(c2c[nH]c3ncc(-c4ccc(CN5CCOCC5)s4)cc23)CC1 [Example 48, N-cyclopropyl-4-(5-(5-(morpholinomethyl)thiophen-2-yl)-1H-pyrrolo[2,3-b]pyridin-3-yl)-5,6-dihydropyridine-1(2H)-carboxamide]",8.2,10
"COc1ccc(-c2cnc3[nH]cc(C4=CCN(C(=O)NC5CCCC5)CC4)c3c2)cc1F [Example 50, N-cyclopentyl-4-(5-(3-fluoro-4-methoxyphenyl)-1H-pyrrolo[2,3-b]pyridin-3-yl)-5,6-dihydropyridine-1(2H)-carboxamide]",330,410
"CS(=O)(=O)c1cccc(-c2cnc3[nH]cc(C4=CCN(C(=O)NC5CCCC5)CC4)c3c2)c1 [Example 52, N-cyclopentyl-4-(5-(3-(methylsulfonyl)phenyl)-1H-pyrrolo[2,3-b]pyridin-3-yl)-5,6-dihydropyridine-1(2H)-carboxamide]",23,48
"CCS(=O)(=O)c1cccc(-c2cnc3[nH]cc(C4=CCN(C(=O)NC5CCCC5)CC4)c3c2)c1 [Example 54, N-cyclopentyl-4-(5-(3-(ethylsulfonyl)phenyl)-1H-pyrrolo[2,3-b]pyridin-3-yl)-3,6-dihydropyridine-1(2H)-carboxamide]",32,84
"CCCS(=O)(=O)c1ccc(-c2cnc3[nH]cc(C4=CCN(C(=O)NC5CCCC5)CC4)c3c2)cc1 [Example 55, N-cyclopentyl-4-(5-(4-(propylsulfonyl)phenyl)-1H-pyrrolo[2,3-b]pyridin-3-yl)-5,6-dihydropyridine-1(2H)-carboxamide]",51,600
"O=C(NC1CCCC1)N1CC=C(c2c[nH]c3ncc(-c4ccc(S(=O)(=O)C5CC5)cc4)cc23)CC1 [Example 56, N-cyclopentyl-4-(5-(4-(cyclopropylsulfonyl)phenyl)-1H-pyrrolo[2,3-b]pyridin-3-yl)-5,6-dihydropyridine-1(2H)-carboxamide]",58,190
"COc1ccc(-c2cnc3[nH]cc(C4=CCN(C(=O)NC5CCCC5)CC4)c3c2)cc1S(=O)(=O)N1CCOCC1 [Example 63, N-cyclopentyl-4-(5-(4-methoxy-3-(morpholinosulfonyl)phenyl)-1H-pyrrolo[2,3-b]pyridin-3-yl)-5,6-dihydropyridine-1(2H)-carboxamide]",29,440
"O=C(NC1CCCC1)N1CC=C(c2c[nH]c3ncc(-c4ccc(CN5CCOCC5)s4)cc23)CC1 [Example 72, N-cyclopentyl-4-(5-(5-(morpholinomethyl)thiophen-2-yl)-1H-pyrrolo[2,3-b]pyridin-3-yl)-5,6-dihydropyridine-1(2H)-carboxamide]",28,38
"CN1CCN(Cc2ccc(-c3cnc4[nH]cc(C5=CCN(C(=O)NC6COC6)CC5)c4c3)cc2)CC1 [Example 78, 4-(5-(4-((4-Methylpiperazin-1-yl)methyl)phenyl)-1H-pyrrolo[2,3-b]pyridin-3-yl)-N-(oxetan-3-yl)-5,6-dihydropyridine-1(2H)-carboxamide]",15,55
"CN1CCN(Cc2ccc(-c3cnc4[nH]cc(C5=CCN(C(=O)NC6COC6)CC5)c4c3)s2)CC1 [Example 79, 4-(5-(5-((4-Methylpiperazin-1-yl)methyl)thiophen-2-yl)-1H-pyrrolo[2,3-b]pyridin-3-yl)-N-(oxetan-3-yl)-5,6-dihydropyridine-1(2H)-carboxamide]",320,28
"CC(C)NC(=O)N1CCC(c2c[nH]c3ncc(-c4ccc(CN5CCOCC5)cc4)cc23)=CC1C (stereo not shown) [Example 90, N-isopropyl-2-methyl-4-(5-(4-(morpholinomethyl)phenyl)-1H-pyrrolo[2,3-b]pyridin-3-yl)-5,6-dihydropyridine-1(2H)-carboxamide]",5.2,5.5
"CCC(CC)NC(=O)N1CCC(c2c[nH]c3ncc(-c4ccc(CN5CCN(C)CC5)s4)cc23)=CC1C (stereo not shown) [Example 91, 6-Methyl-4-(5-(5-((4-methylpiperazin-1-yl)methyl)thiophen-2-yl)-1H-pyrrolo[2,3-b]pyridin-3-yl)-N-(pentan-3-yl)-3,6-dihydropyridine-1(2H)-carboxamide]",46,180
"CCC(CC)NC(=O)N1CCC(c2c[nH]c3ncc(-c4ccc(CN5CCOCC5)s4)cc23)=CC1C (stereo not shown) [Example 92, 6-Methyl-4-(5-(5-(morpholinomethyl)thiophen-2-yl)-1H-pyrrolo[2,3-b]pyridin-3-yl)-N-(pentan-3-yl)-3,6-dihydropyridine-1(2H)-carboxamide]",35,130

# Molecules with a lower IC50 (TBK1), results first:
IC50 (TBK1) [nM],IC50 (IKKε) [nM],Compound
3.6,12,"CN1CCN(Cc2ccc(-c3cnc4[nH]cc(C5=CCN(C(=O)NC6CC6)CC5)c4c3)s2)CC1 [Example 47, N-cyclopropyl-4-(5-(5-((4-methylpiperazin-1-yl)methyl)thiophen-2-yl)-1H-pyrrolo[2,3-b]pyridin-3-yl)-5,6-dihydropyridine-1(2H)-carboxamide]"
1.2,3.4,"O=C(NC1COC1)N1CC=C(c2c[nH]c3ncc(-c4ccc(CN5CCOCC5)s4)cc23)CC1 [Example 80, 4-(5-(5-(Morpholinomethyl)thiophen-2-yl)-1H-pyrrolo[2,3-b]pyridin-3-yl)-N-(oxetan-3-yl)-5,6-dihydropyridine-1(2H)-carboxamide]"
2.8,3.5,"CC(C)NC(=O)N1CCC(c2c[nH]c3ncc(-c4ccc(CN5CCN(C)CC5)cc4)cc23)=CC1C (stereo not shown) [Example 86, N-isopropyl-2-methyl-4-(5-(4-((4-methylpiperazin-1-yl)methyl)phenyl)-1H-pyrrolo[2,3-b]pyridin-3-yl)-5,6-dihydropyridine-1(2H)-carboxamide]"
1,1.5,"CC(C)NC(=O)N1CCC(c2c[nH]c3ncc(-c4ccc(CN5CCOCC5)s4)cc23)=CC1C (stereo not shown) [Example 87, N-isopropyl-2-methyl-4-(5-(5-(morpholinomethyl)thiophen-2-yl)-1H-pyrrolo[2,3-b]pyridin-3-yl)-5,6-dihydropyridine-1(2H)-carboxamide]"
0.8,3.2,"CC(C)NC(=O)N1CCC(c2c[nH]c3ncc(-c4ccc(CN5CCN(C)CC5)s4)cc23)=CC1C (stereo not shown) [Example 88, N-isopropyl-2-methyl-4-(5-(5-((4-methylpiperazin-1-yl)methyl)thiophen-2-yl)-1H-pyrrolo[2,3-b]pyridin-3-yl)-5,6-dihydropyridine-1(2H)-carboxamide]"
2.8,3.3,"CC(C)NC(=O)N1CCC(c2c[nH]c3ncc(-c4ccc(C(=O)N5CCN(C)CC5)cc4)cc23)=CC1C (stereo not shown) [Example 89, N-isopropyl-2-methyl-4-(5-(4-(4-methylpiperazine-1-carbonyl)phenyl)-1H-pyrrolo[2,3-b]pyridin-3-yl)-5,6-dihydropyridine-1(2H)-carboxamide]"
